{
  "source": "patent EP1541694A1",
  "about": "“Methods of identifying, selecting and/or characterizing compounds which modulate the activity of a Src family kinase” (Sirenade Pharmaceuticals AG, priority 2003, dated 2005)",
  "system": "ZM75.7 (Src)",
  "assay": "MTS and ATP cell viability/metabolic activity assays, suppression of tet-induced reduction",
  "type": "cell-based, human",
  "conditions": "3 days after tet/compound addition",
  "excerpt": "To proof the concept of the assay platform according to the invention in a quantitative manner with a highly parallel readout, the following cell viability / metabolic activity assays from Promega according to the manufacturer's protocols: \"CellTiter 96 AQueous One Solution Cell Proliferation Assay (MTS)\", CellTiter-Blue™ Cell Viability Assay (CTB), and the ATP-status assay \"CellTiter-Glo Luminescent Cell Viability Assay\" (ATP) were used to obtain quantitative values reflecting (aspects of) the phenotype changes.\nThe cells were seeded into white-walled/ clear bottom 96-well plates [\"MICROTEST\" by Falcon, cat.no. […] Measurements were taken 1,2 and 3 days later using the Wallac Victor^2™ multilabel plate reader (Perkin Elmer). Absorbance was measured at 490nm (MTS). Luminescence mode was used for the ATP assay. For CTB fluorescence excitation wavelength was 550nm (filter: 550(20)nm), emission wavelength was 590 nm (filter: 590(20)nm). […]\nThree more parameters reflecting the effects of compounds on cell viability/metabolic activity in these assays are indicated in Tab.3 and Tab.4: Toxicity reflects the nonspecific (i.e. irrespective of tet-induced Src/ Src mutant expression) effects of a compound on the viability/ metabolic activity of the cells. It is calculated as toxicity=1-mean(-tet, compound)/mean(-tet,(DMSO)). […]",
  "data": [
    {"smiles": "CC(C)(C)n1nc(-c2ccc(Cl)cc2)c2c(N)ncnc21", "note": "[PP2]", "values": [
      {"measurement": "suppression effects on ZM75.7", "value": "detected"}
    ]}
  ]
}
